By inhibition is commonly meant the relative decrease from the control value, in per cent. Usually pIC50 stands for the negative decadic logarithm of the IC50, by convention in mol/L.

pIC50: −log10 of the molar value.

The values that follow come from ChEMBL document CHEMBL1143888, “Synthesis and structure-activity relationships of N-{1-[(6-fluoro-2-naphthyl)methyl]piperidin-4-yl}benzamide derivatives as novel CCR3 antagonists” (Bioorg Med Chem, 2008).

Assay [1] concerns the target T1, C-C chemokine receptor type 3 (Homo sapiens) (UniProt P51677).
T1 sequence (whole entry): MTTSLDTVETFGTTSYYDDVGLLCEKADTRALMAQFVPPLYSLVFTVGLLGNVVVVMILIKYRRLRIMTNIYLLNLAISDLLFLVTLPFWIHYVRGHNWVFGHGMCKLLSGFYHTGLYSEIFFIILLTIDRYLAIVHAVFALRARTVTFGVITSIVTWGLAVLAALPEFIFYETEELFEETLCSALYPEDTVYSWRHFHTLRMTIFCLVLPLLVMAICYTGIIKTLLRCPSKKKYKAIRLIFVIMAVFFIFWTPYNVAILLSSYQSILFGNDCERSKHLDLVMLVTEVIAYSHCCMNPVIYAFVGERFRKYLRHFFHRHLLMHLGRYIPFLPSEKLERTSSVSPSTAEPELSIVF
The assay can be described thus: Antagonist activity at CCR3 expressed in B300-19 cells assessed as inhibition of eotaxin-induced calcium influx at 10 uM. The format is functional, cell-based.

The target of assay [2] is T2, C-C chemokine receptor type 3 (Homo sapiens, UniProt P51677).
T2 sequence (P51677 whole entry): T1 sequence (whole entry)
Briefly: Antagonist activity at CCR3 expressed in B300-19 cells assessed as inhibition of eotaxin-induced calcium influx. In kind it is functional, cell-based.

Assay [3] has as its target T3, C-C chemokine receptor type 1 (Homo sapiens) (UniProt P32246).
T3 sequence (whole entry): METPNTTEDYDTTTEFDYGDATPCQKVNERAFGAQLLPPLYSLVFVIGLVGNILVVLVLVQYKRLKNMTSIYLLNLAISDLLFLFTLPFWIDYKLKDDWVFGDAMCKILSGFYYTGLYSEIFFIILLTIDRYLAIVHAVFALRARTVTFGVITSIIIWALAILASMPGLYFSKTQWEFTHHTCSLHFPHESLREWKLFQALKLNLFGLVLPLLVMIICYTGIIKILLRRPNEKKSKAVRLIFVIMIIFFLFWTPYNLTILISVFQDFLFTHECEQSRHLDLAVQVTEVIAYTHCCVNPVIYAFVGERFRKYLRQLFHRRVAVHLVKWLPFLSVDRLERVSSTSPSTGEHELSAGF
Briefly: Inhibition of CCR1 at 10 uM.

For the compound `O=C(NC1CCN(Cc2ccc3cc(F)ccc3c2)CC1)c1ccc(-c2ccccc2)cc1`, in assay [1], the inhibition was 27%.

In the case of `O=C(NC1CCN(C/C=C/c2ccc(F)cc2)CC1)c1ccccc1`, in assay [2], the pIC50 is 5.47.

`CC1(NC(=O)c2ccccc2-c2ccccc2)CCN(Cc2ccc3cc(F)ccc3c2)CC1`: in assay [2], the negative-log IC50 (pIC50) is 5.55.

Regarding `O=C(NC1CCN(Cc2ccc3cc(F)ccc3c2)CC1)c1cccc(Oc2ccccc2)c1`, the pIC50 in assay [2] is 5.96.

For `O=C(NC1CCN(Cc2ccc3cc(F)ccc3c2)CC1)c1ccccc1Oc1ccccc1`, the negative logarithm of the IC50 (pIC50) in assay [2] was 7.02.

In the case of `COc1ccccc1C(=O)NC1CCN(Cc2ccc3cc(F)ccc3c2)CC1`, the negative logarithm of the IC50 (pIC50) in assay [2] was 6.14.

For `COc1cccc(C(=O)NC2CCN(Cc3ccc4cc(F)ccc4c3)CC2)c1`, the negative logarithm of the IC50 (pIC50) in assay [2] is 5.46.

Regarding `O=C(NC1CCN(Cc2ccc3cc(F)ccc3c2)CC1)c1ccccc1`, in assay [2], the pIC50 is 5.89.

Regarding `O=S(=O)(NC1CCN(Cc2ccc3cc(F)ccc3c2)CC1)c1ccccc1`, the pIC50 in assay [2] was 6.08.

On to `O=C(Nc1ccccc1)C1CCN(Cc2ccc3cc(F)ccc3c2)CC1`, for which the pIC50 in assay [2] was 5.77.

For `O=C(NC1CCN(Cc2ccc3cc(F)ccc3c2)CC1)c1ccc(Oc2ccccc2)cc1`, in assay [1], the inhibition was determined as 40%.

Consider `O=C(NC1CCN(Cc2ccc3cc(F)ccc3c2)CC1)c1cccc(F)c1`, for which, in assay [2], the negative logarithm of the IC50 (pIC50) is 6.17.

With `O=C(Nc1ccccc1)OC1CCN(Cc2ccc3cc(F)ccc3c2)CC1`, the negative-log IC50 (pIC50) in assay [2] is 5.32.

Turning to `O=C(NC1CCN(Cc2ccc3cc(F)ccc3c2)CC1)c1ccccc1F`, the pIC50 in assay [2] was 5.54.

Turning to `COc1ccc(C(=O)NC2CCN(Cc3ccc4cc(F)ccc4c3)CC2)cc1`, the negative logarithm of the IC50 (pIC50) in assay [2] was 5.62.

As to `Fc1ccc2cc(CN3CCC(NCc4ccccc4)CC3)ccc2c1`, in assay [2], the negative-log IC50 (pIC50) is 6.22.

Turning to `CN(C(=O)c1ccccc1)C1CCN(Cc2ccc3cc(F)ccc3c2)CC1`, in assay [2], the pIC50 is 6.09.

In the case of `O=C(Nc1ccccc1)NC1CCN(Cc2ccc3cc(F)ccc3c2)CC1`, the inhibition in assay [1] came to 31%.

In turn, `O=C(NC1C[C@@H]2CC[C@@H](C1)N2Cc1ccc2cc(F)ccc2c1)c1ccccc1-c1ccccc1` (relative stereo; 31) came in with an inhibition in assay [3] of 40%.
